Laboratory results reported in patent US20210322395A1, “METHOD TO PREVENT AND TREAT HEARING LOSS BY CALCIUM CHANNEL BLOCKERS, ANGIOTENSIN CONVERTING ENZYME INHIBITORS, AND ANGIOTENSIN RECEPTOR BLOCKERS” (priority 2018, published 2021).

Key:
hearing loss [1] = experiment: Treatment of hearing loss in a patient, one ear treated, other ear untreated; type: in vivo, human
Description: A patient is diagnosed with hearing loss of the same magnitude in both ears. A composition comprising the calcium channel blocker nifedipine is directly applied to the external ear space of one ear while the other ear is left untreated. […] A patient is diagnosed with hearing loss of the same magnitude in both ears. A composition comprising the ACE inhibitor enalapril is directly applied to the external ear space of one ear while the other ear is left untreated. […] A patient is diagnosed with hearing loss of the same magnitude in both ears. A composition comprising the angiotensin receptor blocker losartan is directly applied to the external ear space of one ear while the other ear is left untreated. […] A patient is diagnosed with hearing loss of the same magnitude in both ears. A composition comprising the calcium channel blocker nifedipine is administered by injection into the middle ear space of one ear while the other ear is left untreated. […] A patient is diagnosed with hearing loss of the same magnitude in both ears. A composition comprising the ACE inhibitor enalapril is administered by injection into the middle ear space of one ear while the other ear is left untreated. […] A patient is diagnosed with hearing loss of the same magnitude in both ears. A composition comprising the angiotensin receptor blocker losartan is administered by injection into the middle ear space of one ear while the other ear is left untreated. […] A patient is diagnosed with hearing loss of the same magnitude in both ears. A composition comprising the calcium channel blocker nifedipine is administered by injection into the inner ear space of one ear while the other ear is left untreated. […] A patient is diagnosed with hearing loss of the same magnitude in both ears. A composition comprising the ACE inhibitor enalapril is administered by injection into the inner ear space of one ear while the other ear is left untreated. […] A patient is diagnosed with hearing loss of the same magnitude in both ears. A composition comprising the angiotensin receptor blocker losartan is administered by injection into the inner ear space of one ear while the other ear is left untreated.

hearing loss [2] = experiment: Prevention of recurrence of hearing loss in a successfully treated patient, one ear treated, other ear untreated; type: in vivo, human; settings: patient after successful treatment, untreated side again exhibits symptoms
Description: A composition comprising the calcium channel blocker nifedipine is directly applied to the external ear space of one ear while the other ear is left untreated. […] A composition comprising the ACE inhibitor enalapril is directly applied to the external ear space of one ear while the other ear is left untreated. […] A composition comprising the angiotensin receptor blocker losartan is directly applied to the external ear space of one ear while the other ear is left untreated. […] A composition comprising the calcium channel blocker nifedipine is administered by injection into the middle ear space of one ear while the other ear is left untreated. […] A composition comprising the ACE inhibitor enalapril is administered by injection into the middle ear space of one ear while the other ear is left untreated. […] A composition comprising the angiotensin receptor blocker losartan is administered by injection into the middle ear space of one ear while the other ear is left untreated. […] A composition comprising the calcium channel blocker nifedipine is administered by injection into the inner ear space of one ear while the other ear is left untreated. […] A composition comprising the ACE inhibitor enalapril is administered by injection into the inner ear space of one ear while the other ear is left untreated. […] A composition comprising the angiotensin receptor blocker losartan is administered by injection into the inner ear space of one ear while the other ear is left untreated.

[3] = composition directly applied to the external ear space of one ear
[4] = composition injected into the inner ear space of one ear
[5] = composition injected into the middle ear space of one ear

Row | SMILES | hearing loss of treated ear compared to untreated ear (hearing loss [1]; [3]) | hearing loss of treated ear compared to untreated ear (hearing loss [1]; [4]) | hearing loss of treated ear compared to untreated ear (hearing loss [1]; [5]) | level of hearing of treated ear after a period of time (recurrence of hearing loss) (hearing loss [2]; [3]) | level of hearing of treated ear after a period of time (recurrence of hearing loss) (hearing loss [2]; [4]) | level of hearing of treated ear after a period of time (recurrence of hearing loss) (hearing loss [2]; [5])
1 | CCOC(=O)[C@H](CCc1ccccc1)N[C@@H](C)C(=O)N1CCC[C@H]1C(=O)O [enalapril] | reduced hearing loss | reduced hearing loss | reduced hearing loss | maintained the level of hearing | maintained the level of hearing | maintained the level of hearing
2 | CCCCc1nc(Cl)c(CO)n1Cc1ccc(-c2ccccc2-c2nn[nH]n2)cc1 [losartan] | reduced hearing loss | reduced hearing loss | reduced hearing loss | maintained the level of hearing | maintained the level of hearing | maintained the level of hearing
